Measurements reported in US20210059977A1, “COMBINATION THERAPIES FOR THE TREATMENT OF AMYOTROPHIC LATERAL SCLEROSIS AND RELATED DISORDERS” (The General Hospital Corporation, priority 2018, published 2021).

Tests used:
MCP-1 = assay: CCL2/MCP-1 ELISA assay; type: in vivo, mice
Method: Spinal cord tissue was homogenized, and supernatants were derived as described in the section related to the Meso Scale Discovery cytokine assay. MCP-1 levels were measured in the supernatants generated from spinal cord tissue or in the plasma using the 96-well Mouse CCL2/JE/MCP-1 Quantikine ELISA Kit (R&D systems, #MJE00B), following the manufacturer's instructions. Briefly, samples and diluted standards were added to the plate coated with MCP-1-specific antibody. Samples were incubated in the plate for 2 hours on a shaker at room temperature, followed by washes with the wash buffer provided in the kit. Subsequently, horseradish peroxidase conjugated antibody against MCP-1 was added to each well and incubated for 2 hours at room temperature on the shaker. The plate was washed with the wash buffer and incubated with Substrate solution for 30 minutes at room temperature. Next, Stop solution was added and the signal was read on a Microplate reader (Synergy 2, Biotek Instruments). The optical density was measured at […] and was corrected with the optical density measured at 540 nm. MCP-1 levels in the samples were calculated based on the MCP-1 standard curve. Protein concentrations in the supernatants were measured by the Pierce BCA protein assay kit (Thermo Scientific). Values in the graphs represent levels of MCP-1 normalized to the corresponding protein concentrations. […]

[1] = Body weight of TgSOD1 mice; type: in vivo; conditions: TgSOD1-Cromolyn vs TgSOD1-Vehicle
Method: Beginning at P50, weight and neurological score (using the ALS TDI criteria) (Hatzipetros, T., et al. (2015). “A Quick Phenotypic Neurological Scoring System for Evaluating Disease Progression in the SOD1-G93A Mouse Model of ALS.” J Vis Exp(104); Leitner M., et. al. (2009). “Working with ALS mice: Guidelines for preclinical testing & colony management.” The Jackson Laboratory) were recorded for each mouse every 5 days until death or euthanasia. ALS TDI criteria are as follows: • Score of 0: Full extension of hind legs away from lateral midline when mouse is suspended by its tail, and mouse can hold this for two seconds, suspended two to three times. • Score of 1: Collapse or partial collapse of leg extension towards lateral midline (weakness) or trembling of hind legs during tail suspension. • Score of 2: Toes curl under at least twice during walking of 12 inches, or any part of foot is dragging along cage bottom/table. • Score of 3: Rigid paralysis or minimal joint movement, foot not being used for generating forward motion. • Score of 4: Mouse cannot right itself within 15 seconds after being placed on either side. *Mice were euthanized upon obtaining a score of 4. […]

[2] = system: pro-inflammatory cytokines and chemokines in spinal cord; assay: Meso Scale Discovery multi-spot cytokine assay, spinal cord; type: in vivo, mice; conditions: TgSOD1-Cromolyn vs TgSOD1-Vehicle; p=0.0273
Method: Spinal cord frozen tissue was homogenized in ice-cold RIPA buffer (Thermo Fisher Scientific, #8990) supplemented with protease inhibitor cocktail (Thermo Fisher Scientific, #78430). Samples were centrifuged at 45,000 g for 30 minutes at 4° C. using an Optima TL ultracentrifuge and a TLA 120.2 rotor (Beckman Coulter). Expression levels of 10 pro-inflammatory cytokines and chemokines were assessed in the supernatants derived from spinal cord tissue or in the plasma, using an electrochemiluminescence-based multi-array method and MESO Quickplex SQ 120 system (MSD, Rockville, Md., USA). The 96-well V-PLEX Proinflammatory Mouse 1 Kit (Meso Scale Discovery, #K15048D) was used to measure simultaneously IFN-γ, IL-1β, IL-2, IL-4, IL-5, IL-6, CXCL1/KC/GRO, IL-10, IL-12, p70, and TNFα, following the manufacturer's instructions. Briefly, samples were diluted in the calibrator and added to the plate coated with an array of cytokine capture antibodies. […] The plate was washed with the wash buffer and the 2× Read Buffer T was added. The signal was immediately measured on a MESO QuickPlex SQ 120 instrument and was analyzed using the DISCOVERY WORKBENCH 4.0 software (Meso Scale Diagnostics, LLC., Rockville, Md., USA). Protein concentrations in the supernatants or the plasma samples were measured using the Pierce BCA protein assay kit (Thermo Scientific). […]

[3] = system: Iba1-positive cell area in lumbar spinal cord; assay: Iba1 immunohistochemical analysis (microgliosis); type: in vivo, mice; conditions: TgSOD1-Cromolyn vs TgSOD1-Vehicle
Method: Frozen spinal cord sections were fixed in 4% PFA/PBS for 72 hours and dehydrated with 30% sucrose in PBS. Sections were washed three times (5 minutes each) with PBS and incubated with 3% H2O2 in PBS for 15 minutes to quench endogenous peroxidases. Sections were subsequently washed three times with PBS and blocked using 5% (v/v) normal goat serum (Vector Laboratories), 0.3% Triton X-100 in PBS. Primary antibody against Iba1 (rabbit polyclonal, 1:400, Wako, #019-19741) was diluted in a buffer containing 2.5% (v/v) normal goat serum, 0.3% Triton X-100 and incubated overnight at 4° C. On the following day, samples were washed three times (10 minutes each) with PBS. The primary antibody was detected using a biotinylated secondary antibody (1:200) and VECTASTAIN Elite ABC HRP kit (Vector Laboratories), and developed with DAB (Vector Laboratories), following the provider's instructions. Sections were dehydrated in a series of graded ethanol, cleared in xylene, and cover-slipped with Cytoseal-XYL xylene-based mounting medium (Thermo Fisher Scientific). Sections were imaged using a light microscope (TE360 Eclipse; Nikon, Japan) at 10× magnification. The Iba1-positive cell area (area occupied by Iba1-positive cells divided by the total area) was quantified for each spinal cord section using ImageJ software (Voxel counter plugin, NIH, USA). Two to three sections were analyzed per mouse. […]

Which “MCP-1 levels in the spinal cord” value (MCP-1; TgSOD1-Cromolyn vs TgSOD1-Vehicle) does the source give for O=C(O)c1cc(=O)c2c(OCC(O)COc3cccc4oc(C(=O)O)cc(=O)c34)cccc2o1 [cromolyn, cromolyn sodium] here?
Its value is “no effect of cromolyn treatment on MCP-1 levels”.

And the “MCP-1 levels in the plasma” value (MCP-1; any of the groups)?
The value was “not altered”.

What about the body weight ([1]; 6.3 mg/kg i.p. once daily 5 days per week from P60, overall) of the same compound?
The body weight was “did not impact body weight”.

What about the body weight ([1]; 6.3 mg/kg i.p., all mice, at P130) of the same compound?
Its body weight is “significant improvement in body weight”.

What about the “CXCL1 levels in spinal cord” value [2] of the same compound?
Its value is “significant decrease”.

What about the “TNFα levels in spinal cord” value [2] of the same compound?
Its value is “significant decrease”.

And the “percentage of Iba1-positive cell area in the lumbar spinal cord” value [3]?
The value was “no significant change”.
